Converted amounts (≈) assume the structure as drawn.
What was measured:
Staphylococcus aureus [1] = test: Potentiation of amikacin-induced antibacterial activity against Staphylococcus aureus 358 assessed as amikacin MIC at 64 ug/ml after 24 hrs by broth microdilution assay (reference value: 156.2 ug/ml); type: functional; details: Staphylococcus aureus, 358, 24 h
Escherichia coli [2] = test: Potentiation of amikacin-induced antibacterial activity against Escherichia coli 27 assessed as amikacin MIC at 64 ug/ml after 24 hrs by broth microdilution assay (reference value: 156.2 ug/ml); type: functional; details: Escherichia coli, 27, 24 h
Staphylococcus aureus [3] = test: Potentiation of gentamicin-induced antibacterial activity against Staphylococcus aureus 358 assessed as gentamicin MIC at 64 ug/ml after 24 hrs by broth microdilution assay (reference value: 312.5 ug/ml); type: functional; details: Staphylococcus aureus, 358, 24 h
Escherichia coli [4] = test: Potentiation of gentamicin-induced antibacterial activity against Escherichia coli 27 assessed as gentamicin MIC at 64 ug/ml after 24 hrs by broth microdilution assay (reference value: 625 ug/ml); type: functional; details: Escherichia coli, 27, 24 h
Pseudomonas aeruginosa [5] = test: Potentiation of gentamicin-induced antibacterial activity against Pseudomonas aeruginosa 03 assessed as gentamicin MIC at 32 ug/ml after 24 hrs by broth microdilution assay (reference value: 625 ug/ml); type: functional; details: Pseudomonas aeruginosa, 03, 24 h
Pseudomonas aeruginosa [6] = test: Potentiation of amikacin-induced antibacterial activity against Pseudomonas aeruginosa 03 assessed as amikacin MIC at 32 ug/ml after 24 hrs by broth microdilution assay (reference value: 312.5 ug/ml); type: functional; details: Pseudomonas aeruginosa, 03, 24 h
Escherichia coli [7] = test: Potentiation of neomycin-induced antibacterial activity against Escherichia coli 27 assessed as neomycin MIC at 64 ug/ml after 24 hrs by broth microdilution assay (reference value: 312.5 ug/ml); type: functional; details: Escherichia coli, 27, 24 h
Staphylococcus aureus [8] = test: Potentiation of neomycin-induced antibacterial activity against Staphylococcus aureus 358 assessed as neomycin MIC at 64 ug/ml after 24 hrs by broth microdilution assay (reference value: 156.2 ug/ml); type: functional; details: Staphylococcus aureus, 358, 24 h
Staphylococcus aureus [9] = test: Synergistic antibacterial activity against Staphylococcus aureus assessed as fractional inhibitory concentration index in presence of ampicillin by checkerboard assay; type: functional
Pseudomonas aeruginosa [10] = test: Synergistic antibacterial activity against Pseudomonas aeruginosa assessed as fractional inhibitory concentration index in presence of ampicillin by checkerboard assay; type: functional
Staphylococcus aureus [11] = test: Inhibition of beta-lactamase in Staphylococcus aureus assessed as potentiation of ampicillin-induced antibacterial activity by measuring ampicillin MIC incubated for 24 hrs by CLSI method (Rvb > 200 ug/ml)
Pseudomonas aeruginosa [12] = test: Inhibition of beta-lactamase in Pseudomonas aeruginosa assessed as potentiation of ampicillin-induced antibacterial activity by measuring ampicillin MIC incubated for 24 hrs by CLSI method (Rvb >200 ug/ml)
Streptococcus pyogenes [13] = test: Inhibition of beta-lactamase in Streptococcus pyogenes assessed as potentiation of ampicillin-induced antibacterial activity by measuring ampicillin MIC incubated for 24 hrs by CLSI method (Rvb > 200 ug/ml)
Escherichia coli [14] = test: Inhibition of beta-lactamase in Escherichia coli assessed as potentiation of ampicillin-induced antibacterial activity by measuring ampicillin MIC incubated for 24 hrs by CLSI method (reference value: 100 ug/ml)
Streptococcus pyogenes [15] = test: Synergistic antibacterial activity against Streptococcus pyogenes assessed as fractional inhibitory concentration index in presence of ampicillin by checkerboard assay; type: functional
Haemophilus influenzae = details: 54A042
[16] = biological target: Beta-lactamase (Staphylococcus aureus) (UniProt P00807); details: 01A400
Description: Inhibition of penicillinase in Staphylococcus aureus 01A400 assessed as potentiation of benzylpenicillin-induced antibacterial activity by measuring benzylpenicillin MIC at 3.12 ug/ml (Rvb = 200 ug/ml)

Bacteroides fragilis = details: 78C004
Description: Inhibition of beta-lactamase in Bacteroides fragilis 78C004 assessed as potentiation of benzylpenicillin-induced antibacterial activity by measuring benzylpenicillin MIC at 3.12 ug/ml (Rvb = 200 ug/ml)

[17] = tested on: Staphylococcus epidermidis; details: 01B116
Description: Inhibition of beta-lactamase in Staphylococcus epidermidis 01B116 assessed as potentiation of benzylpenicillin-induced antibacterial activity by measuring benzylpenicillin MIC at 3.12 ug/ml (Rvb >25 ug/ml)

[18] = biological target: Metallo-beta-lactamase type 2 (Klebsiella pneumoniae) (UniProt C7C422); test: Inhibition of beta-lactamase NDM-1 in Klebsiella pneumoniae N11-2218 assessed as potentiation of meropenem-induced antibacterial activity by measuring meropenem MIC at 8 ug/ml (Rvb =32 ug/ml)
Klebsiella pneumoniae = test: Potentiation of meropenem-induced antibacterial activity against Klebsiella pneumoniae N11-2218 harboring NDM1 infected in CD1 mouse assessed as mouse survival at 30 mg/kg, sc administered 30 mins post infection and measured 5 days post infection (reference value: 0%); type: functional; details: N11-2218, sc
Klebsiella aerogenes [19] = test: Inhibition of AcrAB-TolC in Enterobacter aerogenes EA3 assessed as potentiation of tetracycline-induced antibacterial activity by measuring tetracycline MIC at 0.2 mM incubated for 18 hrs (reference value: 8 ug/ml)
Klebsiella aerogenes [20] = test: Inhibition of AcrAB-TolC in Enterobacter aerogenes EA3 assessed as potentiation of norfloxacin-induced antibacterial activity by measuring norfloxacin MIC at 0.2 mM incubated for 18 hrs (reference value: 256 ug/ml)
Klebsiella aerogenes [21] = test: Inhibition of AcrAB-TolC in Enterobacter aerogenes EA3 assessed as potentiation of chloramphenicol-induced antibacterial activity by measuring chloramphenicol MIC at 0.2 mM incubated for 18 hrs (reference value: 512 ug/ml)

Metallo-beta-lactamase type 2 (Klebsiella pneumoniae), sequence (C7C422 whole entry): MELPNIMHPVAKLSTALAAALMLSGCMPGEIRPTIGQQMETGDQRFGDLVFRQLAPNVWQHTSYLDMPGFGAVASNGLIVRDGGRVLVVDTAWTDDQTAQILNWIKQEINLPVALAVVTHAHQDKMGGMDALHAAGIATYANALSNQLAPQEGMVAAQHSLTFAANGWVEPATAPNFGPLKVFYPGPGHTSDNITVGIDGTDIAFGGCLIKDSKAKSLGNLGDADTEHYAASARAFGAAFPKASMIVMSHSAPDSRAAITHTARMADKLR
Beta-lactamase (Staphylococcus aureus), sequence (P00807 whole entry): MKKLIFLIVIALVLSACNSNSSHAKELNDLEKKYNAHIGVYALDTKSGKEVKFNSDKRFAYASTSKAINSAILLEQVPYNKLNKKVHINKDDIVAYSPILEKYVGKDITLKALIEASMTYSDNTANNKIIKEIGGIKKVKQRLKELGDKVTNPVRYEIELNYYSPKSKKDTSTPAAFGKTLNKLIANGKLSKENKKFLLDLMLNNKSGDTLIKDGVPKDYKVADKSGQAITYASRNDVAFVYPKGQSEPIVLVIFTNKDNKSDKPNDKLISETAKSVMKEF

Work on `CC1=CC(=O)c2ccccc2C1=O` [MENADIONE] yielded an MIC (Staphylococcus aureus [1]) of 2.4 µg/mL, an MIC (Escherichia coli [2]) of 2.4 µg/mL and an MIC (Staphylococcus aureus [3]) of 2.4 µg/mL. For the same molecule, the MIC (Escherichia coli [4]) was 2.4 µg/mL, the MIC (Pseudomonas aeruginosa [5]) was 2.4 µg/mL and the MIC (Pseudomonas aeruginosa [6]) was 2.4 µg/mL. The MIC (Escherichia coli [7]) was 2.4 µg/mL and the MIC (Staphylococcus aureus [8]) was 2.4 µg/mL.
For `CC[C@H](/C=C/[C@@H](C)[C@H]1CC[C@H]2[C@@H]3CC=C4C[C@@H](O)CC[C@]4(C)[C@H]3CC[C@]12C)C(C)C` [STIGMASTEROL], the “fractional inhibitory concentration index (FICI)” value (Staphylococcus aureus [9]) was under 0.5, the “fractional inhibitory concentration index (FICI)” value (Pseudomonas aeruginosa [10]) was under 0.5 and the MIC (Staphylococcus aureus [11]) was 3.13 µg/mL. For the same molecule, the MIC (Pseudomonas aeruginosa [12]) was 6.25 µg/mL, the MIC (Streptococcus pyogenes [13]) was 1.56 µg/mL and the MIC (Escherichia coli [14]) was 6.25 µg/mL. For the same molecule, the “fractional inhibitory concentration index (FICI)” value (Streptococcus pyogenes [15]) was under 0.5.
`CC1(C)[C@H](C(=O)O)N2C(=O)C[C@H]2S1(=O)=O` showed an MIC (Haemophilus influenzae) of 1.56 µg/mL (≈ 6.69 µM), an MIC [16] of 1.56 µg/mL (≈ 6.69 µM) and an MIC (Bacteroides fragilis) of 3.12 µg/mL (≈ 13.4 µM). For the same molecule, the MIC [17] was 1.56 µg/mL (≈ 6.69 µM).
Work on `N[C@H](CN[C@H](CN[C@@H](CC(=O)O)C(=O)O)C(=O)O)C(=O)O` yielded an MIC [18] of 1 µg/mL and a survival at 30 mg/kg (Klebsiella pneumoniae) of 95%.
`Cc1c([N+](=O)[O-])ccc2c(NCCN3CCCCC3)ccnc12` was tested, and the MIC (Klebsiella aerogenes [19]) was 0.5 µg/mL, the MIC (Klebsiella aerogenes [20]) was 16 µg/mL and the MIC (Klebsiella aerogenes [21]) was 2 µg/mL.

Reference: ChEMBL document CHEMBL4376806, “Antibiotic Adjuvants: Make Antibiotics Great Again!” (2019)
